Results as given in patent publication US20240409536A1, “COMPOUNDS AND METHODS FOR MODULATING SPLICING” (REMIX THERAPEUTICS INC., priority 2021, published 2024).
Where a name gives a salt, the structure may show the parent alone.

Tested on: MYB mRNA
Test: Gene panel canonical junction qPCR assay, MYB CJ mRNA decrease
Type: cell-based, human
Settings: Homo sapiens, canonical junction qPCR, read-out: MYB IC50 (decrease in CJ mRNA levels)
Method in brief: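 A673 or K562 cells were treated with compound, and lysates underwent cDNA synthesis and qPCR with a CY5 5′-nuclease probe or primer spanning the canonical exon junction. ΔCt versus GAPDH, GUSB or PPIA was normalized to DMSO (2^(−ΔΔCt)), converted to percentage response and fitted four-parameter logistic for IC50.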

| SMILES | IC50 [nM] |
| --- | --- |
| Cc1cn2cc(NC(=O)c3ccc(N4CCC5(CCN5)CC4)c4nccnc34)cc(F)c2n1 [Compound 189, 8-{1,7-diazaspiro[3.5]nonan-7-yl}-N-{8-fluoro-2-methylimidazo[1,2-a]pyridin-6-yl}quinoxaline-5-carboxamide] | < 100 |
| CNC1CCN(c2ccc(C(=O)Nc3cc(F)c4nc(C)cn4c3)c3nccnc23)C1 (stereo not shown) [Compound 190, N-{8-fluoro-2-methylimidazo[1,2-a]pyridin-6-yl}-8-[3-(methylamino)pyrrolidin-1-yl]quinoxaline-5-carboxamide] | 100 to 1000 |
| CCNC1CCN(c2ccc(C(=O)Nc3cc(F)c4nc(C)cn4c3)c3nccnc23)CC1 [Compound 191, 8-[4-(ethylamino)piperidin-1-yl]-N-{8-fluoro-2-methylimidazo[1,2-a]pyridin-6-yl}quinoxaline-5-carboxamide] | < 100 |
| CNCC1CCN(c2ccc(C(=O)Nc3cc(F)c4nc(C)cn4c3)c3nccnc23)CC1 [Compound 192, N-{8-fluoro-2-methylimidazo[1,2-a]pyridin-6-yl}-8-{4-[(methylamino)methyl]piperidin-1-yl}quinoxaline-5-carboxamide trifluoroacetate] | 1000 to 10000 |
| CNC1CCN(c2ccc(C(=O)Nc3cc(F)c4nc(C)cn4c3)c3nc(C)ccc23)C1 (stereo not shown) [Compound 196, N-{8-fluoro-2-methylimidazo[1,2-a]pyridin-6-yl}-2-methyl-5-[3-(methylamino)pyrrolidin-1-yl]quinoline-8-carboxamide 2,2,2-trifluoroacetate] | 100 to 1000 |
| Cc1cnc2c(N3CCNCC3)ccc(C(=O)Nc3cc(F)c4nc(C)cn4c3)c2n1 [Compound 197, N-{8-fluoro-2-methylimidazo[1,2-a]pyridin-6-yl}-3-methyl-8-(piperazin-1-yl)quinoxaline-5-carboxamide; trifluoroacetic acid] | 100 to 1000 |
| COCCOc1cc2c(N3CCNCC3)ccc(C(=O)Nc3cc(F)c4nc(C)cn4c3)c2nn1 [Compound 199, N-{8-fluoro-2-methylimidazo[1,2-a]pyridin-6-yl}-3-(2-methoxyethoxy)-5-(piperazin-1-yl)cinnoline-8-carboxamide] | 100 to 1000 |
| Cc1cnc2c(N3CCC(N(C)C)CC3)ccc(C(=O)Nc3cc(F)c4nc(C)cn4c3)c2n1 [Compound 200, 8-[4-(dimethylamino)piperidin-1-yl]-N-{8-fluoro-2-methylimidazo[1,2-a]pyridin-6-yl}-3-methylquinoxaline-5-carboxamide] | < 100 |
| CN[C@@H]1CCN(c2ccc(C(=O)Nc3cc(F)c4nc(C)cn4c3)c3nc(OC)cnc23)C1 [Compound 204, (R)—N-{8-fluoro-2-methylimidazo[1,2-a]pyridin-6-yl}-3-methoxy-8-[3-(methylamino)pyrrolidin-1-yl]quinoxaline-5-carboxamide; trifluoroacetic acid] | 1000 to 10000 |
| COc1cnc2c(N3C[C@@H](C)N[C@@H](C)C3)ccc(C(=O)Nc3cc(F)c4nc(C)cn4c3)c2n1 [Compound 205, 8-[(3R,5S)-3,5-dimethylpiperazin-1-yl]-N-{8-fluoro-2-methylimidazo[1,2-a]pyridin-6-yl}-3-methoxyquinoxaline-5-carboxamide; trifluoroacetic acid] | < 100 |
| COc1cnc2c(N3CCC(N(C)C)CC3)ccc(C(=O)Nc3cc(F)c4nc(C)cn4c3)c2n1 [Compound 206, 8-[4-(dimethylamino)piperidin-1-yl]-N-{8-fluoro-2-methylimidazo[1,2-a]pyridin-6-yl}-3-methoxyquinoxaline-5-carboxamide; trifluoroacetic acid] | 100 to 1000 |
| COc1cnc2c(N3CCNCC3)ccc(C(=O)Nc3cc(F)c4nc(C)cn4c3)c2n1 [Compound 207, N-{8-fluoro-2-methylimidazo[1,2-a]pyridin-6-yl}-3-methoxy-8-(piperazin-1-yl)quinoxaline-5-carboxamide; bis(trifluoroacetic acid)] | < 100 |
| Cc1cnc2c(C(=O)Nc3cc(F)c4nc(C)cn4c3)ccc(N3CCC(N(C)C)CC3)c2n1 [Compound 208, 8-[4-(dimethylamino)piperidin-1-yl]-N-{8-fluoro-2-methylimidazo[1,2-a]pyridin-6-yl}-2-methylquinoxaline-5-carboxamide; bis(trifluoroacetic acid)] | < 100 |
| Cc1ccc2c(N3C[C@@H](C)N[C@@H](C)C3)ccc(C(=O)Nc3cc(F)c4nc(C)cn4c3)c2n1 [Compound 214, 5-[(3R,5S)-3,5-dimethylpiperazin-1-yl]-N-{8-fluoro-2-methylimidazo[1,2-a]pyridin-6-yl}-2-methylquinoline-8-carboxamide] | < 100 |
| Cc1ccc2c(N3CCC(N(C)C)CC3)ccc(C(=O)Nc3cc(F)c4nc(C)cn4c3)c2n1 [Compound 215, 5-[4-(dimethylamino)piperidin-1-yl]-N-{8-fluoro-2-methylimidazo[1,2-a]pyridin-6-yl}-2-methylquinoline-8-carboxamide] | 100 to 1000 |
| Cc1cnc2c(N3C[C@@H](C)N[C@@H](C)C3)ccc(C(=O)Nc3cc(F)c4nc(C)cn4c3)c2n1 [Compound 216, 8-((3R,5S)-3,5-dimethylpiperazin-1-yl)-N-{8-fluoro-2-methylimidazo[1,2-a]pyridin-6-yl}-3-methylquinoxaline-5-carboxamide] | 100 to 1000 |

| SMILES | IC50 [nM] |
| --- | --- |
| Cc1cn2cc(NC(=O)c3ccc(N4CCNC5(CC5)C4)c4nccnc34)cc(F)c2n1 [Compound 218, 8-{4,7-diazaspiro[2.5]octan-7-yl}-N-{8-fluoro-2-methylimidazo[1,2-a]pyridin-6-yl}quinoxaline-5-carboxamide] | < 100 |
| Cc1cn2cc(NC(=O)c3ccc(N4CC(C)(C)NC(C)(C)C4)c4nccnc34)cc(F)c2n1 [Compound 219, N-{8-fluoro-2-methylimidazo[1,2-a]pyridin-6-yl}-8-(3,3,5,5-tetramethylpiperazin-1-yl)quinoxaline-5-carboxamide] | < 100 |
| Cc1cn2cc(NC(=O)c3ccc(N4CCNC(C)(C)C4)c4nccnc34)cc(F)c2n1 [Compound 220, 8-(3,3-dimethylpiperazin-1-yl)-N-{8-fluoro-2-methylimidazo[1,2-a]pyridin-6-yl}quinoxaline-5-carboxamide] | < 100 |
| CCNC1CCN(c2ccc(C(=O)Nc3cc(F)c4nc(C)sc4c3)c3nnccc23)CC1 [Compound 221, 5-[4-(ethylamino)piperidin-1-yl]-N-(4-fluoro-2-methyl-1,3-benzothiazol-6-yl)cinnoline-8-carboxamide] | 1000 to 10000 |
| COc1cnc2c(C(=O)Nc3cc(F)c4nc(C)cn4c3)ccc(N3C[C@@H](C)N[C@@H](C)C3)c2n1 [Compound 223] | < 100 |
| COc1cnc2c(C(=O)Nc3cc(F)c4nc(C)cn4c3)ccc(N3CCNCC3)c2n1 [Compound 225, N-{8-fluoro-2-methylimidazo[1,2-a]pyridin-6-yl}-2-methoxy-8-(piperazin-1-yl)quinoxaline-5-carboxamide] | < 100 |
| Cc1cn2cc(NC(=O)c3ccc(N4CCN(CCF)C5(CC5)C4)c4nccnc34)cc(F)c2n1 [Compound 370] | 1000 to 10000 |
| Cc1cn2cc(NC(=O)c3ccc(C4CCNCC4)c4nccnc34)cc(F)c2n1 [Compound 371] | 100 to 1000 |
| Cc1cn2cc(NC(=O)c3ccc(N4CCNC5(COC5)C4)c4nccnc34)cc(F)c2n1 [Compound 372] | 1000 to 10000 |
| Cc1cn2cc(NC(=O)c3ccc(N4CCNC5(CCOC5)C4)c4nccnc34)cc(F)c2n1 (stereo not shown) [Compound 373] | 100 to 1000 |
| Cc1cn2cc(NC(=O)c3ccc(N4CCNC5(CCOCC5)C4)c4nccnc34)cc(F)c2n1 [Compound 374] | 100 to 1000 |
| Cc1cn2cc(NC(=O)c3ccc(C4CCNC5(CC5)C4)c4nccnc34)cc(F)c2n1 (stereo not shown) [Compound 375] | 100 to 1000 |
| Cc1cn2cc(NC(=O)c3ccc(N4C[C@@H](C)NC5(CC5)C4)c4nccnc34)cc(F)c2n1 [Compound 376] | 100 to 1000 |
| Cc1cn2cc(NC(=O)c3ccc(N4C[C@H](C)NC5(CC5)C4)c4nccnc34)cc(F)c2n1 [Compound 377] | < 100 |
| COc1ncc2c(N3C[C@@H](C)N[C@@H](C)C3)ccc(C(=O)Nc3cn4cc(C)nc4c(OC)n3)c2n1 [Compound 378] | < 100 |
